# “Also recorded” adds a separate entry of the source.
# Assays:
# HEK293 cells [1] = assay: Assessment of stimulation toxicity (apoptosis, necrosis, PI uptake); format: cell-based
# Excerpt: Assessment of Stimulation Toxicity: The purpose was to use MM to interact with cell signaling. However, several previous studies by the group have explored the same or similar molecules for inducing cell permeabilization and death (Santos et al., 2022; Alaya-Orozco et al., 2020; Gunasekera et al., 2020). These studies used minutes-long light doses rather than the millisecond-scale doses employed in this work. Nevertheless, assessing the effects of MM stimulation on cell viability remains imperative.
# Potentially toxic effects of MM stimulation on cells were assessed in several ways. First, qualitative analysis of stimulated cells can be used to assess toxicity. For these experiments, HEK293 cells were treated with MM 1 and prepared as was typical for stimulation experiments.
# Second, once a suitable window of stimulation power had been identified, the effects of stimulation on cells were compared to healthy cells and several positive controls representing mechanisms of cell death. For these experiments, cells were loaded with Fluo-4, CellMask cell membrane labeling dye, and MM 1 and were imaged in the presence of cell-impermeant viability dye propidium iodide (PI; 1 μg mL^−1). The onset of apoptotic cell death in imaged colonies was confirmed by the observation of pyknosis (cell shrinkage) (Hajnoczky et al., 2003), the uptake of small amounts of PI, and the enhanced fluorescence of Fluo-4 in the colony (FIG. 8A).
# Finally, to account for potential aftereffects of stimulation, isolated HEK293 colonies were grew in a grid pattern by photolithographically patterning polydimethylsiloxane onto Ibidi imaging dishes. Colonies were seeded with 25,000 cells cm^−2. Two days after seeding, cells were treated with MM 1 and Fluo-4 using typical protocols (see Example 6), and 10 selected cells were stimulated in selected colonies. After 24 h, these colonies were imaged again in the presence of 1 μg mL^−1 PI to observe any effects of MM stimulation on growth, cell stress, or viability.
# HEK293 cells [2] = assay: Pharmacological blocking of MM 1-induced calcium responses; format: cell-based; conditions: MM 1 + light in calcium-free PBS
# Method: FIGS. 14A-14J—Mechanistic study of MM-induced ICW. (a) Schematic of possible mechanisms by which calcium can enter the cytoplasm. Prepared with Biorender.com. (b) Confocal microscope images of HEK293 cells treated with MM 1, MitoTracker Green, ER Tracker Red, and CellMask Deep Red. Scale bars are both 20 μm and apply to the images in the same row. (c-h) Calcium waves elicited by MM 1-treated cells (c) in calcium-free PBS, (d) in RR (1 μM), (e) in Gd^3+ (50 μM), (f) after treatment of cells with Th (1 μM), (g) in Ry (100 μM), (h) in XeC (25 μM), (i) in U-73 (10 μM), (j) after pre-treatment of cells with Cyto D (2 μM). The solid line represents the calcium profiles averaged from six independent cells. The shaded region represents the standard error of the mean (n=6). Stimuli were presented after 30 s of imaging in each case, and the time of stimulus presentation is indicated by the vertical cyan line. […] All stimuli were delivered with a pulse width of 250 ms to a circular area of diameter 5 μm at a power ranging from 3.2×10^2 W cm^−2 to 5.1×10^2 W cm^−2. For all plots, the cyan line indicates the time of stimulus presentation. Controls and experimental groups were imaged and stimulated on the same day using the same conditions and with the same batch of cells. Error bars in the bar graphs represent the standard deviation of the mean of n=3 experiments (at least 6 stimulated cells per experiment). Statistical analyses were performed using a one-tailed Welch's t-test. * P-value<0.05, ** P-value<0.01, *** P-value<0.001, **** P-value<0.0001.
# Imaging was conducted in imaging extracellular buffer (iECB; 119 mM NaCl, 5 mM KCl, 10 mM HEPES, 2 mM CaCl2, 1 mM MgCl2 (pH 7.2); 320 mOsm). Imaging in calcium-free medium was conducted in phosphate-buffered saline. Cells were prepared for imaging by seeding a 35 mm Ibidi imaging dish with ~50,000 cells in 1 mL of DMEM, and grown at 37 °C, 5% CO2 for 2 days. Prior to imaging, cells were incubated with dyes and/or molecules resuspended in complete growth medium at the appropriate concentration (MM 1 (8 μM), MM 2 (8 μM), MM 3 (24 μM), MM 4 (8 μM), Fluo-4 (2 μM)). MM and Fluo-4 were loaded into cells for 45 min. Cells treated with thapsigargin were exposed for 30 min after MM and Fluo-4 loading. Cells treated with organelle-targeting dyes were exposed for 5 min after MM loading. Ruthenium red and Gd^3+ were included in the imaging medium during stimulation and were associated with cells for 10 min prior to imaging. At the end of incubation, this medium was replaced with the iECB. Unless otherwise specified, all experiments were replicated in triplicate.
# Pharmacological Experiments: In pharmacological blocking experiments, cells were loaded with MM and Fluo-4 as previously described. Typical imaging experiments in previously described extracellular buffer were then conducted as a positive control. Then, the imaging buffer was replaced, and the cells were treated as required for each experiment. After a brief recovery period, the cells were imaged again, and six different cells were stimulated. Experiments in calcium-free imaging buffer used phosphate buffered saline. Thapsigargin (Th: 1 μM) and Cytochalasin D (Cyto D; 2 μM) were incubated with cells in complete growth medium for 1 h (Th) or 2 h (Cyto D) before imaging. Ruthenium red (RR; 1 μM), gadolinium (Gd; 50 μM), ryanodine (Ry; 100 μM), xestospongin C (XeC; […]), and U-73122 (U-73; 10 μM) were administered directly into the imaging medium. Cells were incubated in the medium for ~5 min prior to imaging. Traces presented are representative results across at least six cells from single experiments, while bar graphs represent the average results across at least three distinct experiments.
# C2C12 myoblasts [3] = assay: ROS generation (CellROX green) in C2C12 myoblasts; format: cell-based, mouse; conditions: MM 1 + light
# Method: Additionally, to further confirm that the cellular calcium release is not the result of a photodynamic effect caused by reactive oxygen species (ROS) generation, ROS generation was measured from each MM using the ROS sensitive dye CellROX green. CellROX fluoresces when oxidized by ROS in living cells and can be used to measure general oxidative stress in cells due to ROS generation. […] To confirm that the ROS generated by MM 1 was not causing intracellular calcium release, cells were treated with a combination of thiourea (TU, 50 mM) and [COMPOUND LEFT OUT] (SA, 1.25 mM) to scavenge the ROS that were produced. […] If ROS generation by MM 1 was the cause of calcium release, then less calcium release would be expected with treatment of ROS scavengers.
# C2C12 myoblasts [4] = assay: Localization of MM 1 in C2C12 cells; format: cell-based, mouse; conditions: 45 minutes of incubation
structure (smiles),measurement,setting,value
CC1Cc2ccc3ccccc3c2C1=C1c2ccccc2Sc2cc(NCCN(C)C)ccc21 (stereo not drawn) [MM 1],Cell toxicity after typical stimulation,"HEK293 cells [1]; MM 1 8 μM, 3.2×10^2 W cm^−2 for 250 ms",cells recovered from stimulation and showed no signs of apoptosis or necrosis
same,Cell toxicity at reduced light dose,"HEK293 cells [1]; MM 1, 3.2×10^2 W cm^−2 for 1 s, 30 min","strong calcium responses from cells without observable toxicity; also recorded: the calcium signal has returned to homeostatic levels, and the stimulated cell and surrounding cells display no apparent damage"
same,Cell toxicity at high light dose,"HEK293 cells [1]; MM 1, 6.4×10^2 W cm^−2 for 4 s","membrane blebbing and calcium accumulation over a 30 min period, indicating cell death; also recorded: membrane blebbing and runaway calcium accumulation; also recorded: the calcium signal has not returned to homeostasis, and membrane blebbing is apparent"
same,PI uptake of stimulated colonies 24 h after stimulation,"HEK293 cells [1]; MM 1, 10 cells stimulated per colony, 1 μg mL^−1 PI",indistinguishable from untreated colonies
same,Necrotic cell death under UV/DAPI-filter LED,"HEK293 cells [1]; MM 1, 395/25 nm, 166 mW cm^−2, 5 min",Necrotic cell death was observed
same,Calcium response amplitude in absence of extracellular calcium,HEK293 cells [2],showed no differences in response amplitude compared to a positive control in calcium-containing medium
same,ROS generation,C2C12 myoblasts [3]; CellROX green,generated more ROS than the DMSO negative control but less ROS than positive controls
same,ROS generation with scavenger combination,C2C12 myoblasts [3]; with thiourea-containing scavenger combination (1× and 0.2×),decrease in ROS generation
same,Cell permeation,C2C12 myoblasts [4],permeate through the cell membrane after 45 minutes of incubation

# — patent US20260373497A1, “MOLECULAR MACHINES STIMULATE INTERCELLULAR CALCIUM WAVES AND CAUSE MUSCLE CONTRACTION” (William Marsh Rice University, priority 2022, published 2026)
